Assay results: ChEMBL document CHEMBL3885861, “Open TG-GATES”

Species on record: Rattus norvegicus
Assay: Open TG-GATES - Regimen: Single
Assay type: toxicity, organism-based, Sprague-Dawley
Design: regimen Single, gender Male, age 6 weeks
Settings: in vivo, po, 0 mg/kg, route gavage, dose level Control; for APTT / Bas / Eos / Fbg / Hb / Ht / Lym / MCH / MCHC / Mono / Neu / PT / Plat / RBC / Ret / WBC / MCV: tissue Blood; for KIDNEY_L / KIDNEY_R / KIDNEY_TOTAL: tissue Kidney; for LIVER: tissue Liver; for ALP / ALT / AST / BUN / CRE / Ca / Cl / DBIL / GLC / IP / K / LDH / Na / PL / RALB / TBIL / TC / TG / TP / gamma-GTP: tissue Plasma

With CCOc1ccc(NC(C)=O)cc1 [PHENACETIN] the TERMINAL_BW (3 h) was 210.2 g, the APTT (3 h) was 17.4 s and the Bas (3 h) was 0%. The Eos (3 h) was 0.6%, the Fbg (3 h) was 292 mg/dL and the Hb (3 h) was 13.3 g/dL. For the same molecule, the Ht (3 h) was 40.2%, the Lym (3 h) was 78.2% and the MCH (3 h) was 20.7 pg. The MCHC (3 h) was 33%, the Mono (3 h) was 3% and the Neu (3 h) was 17.8%. The PT (3 h) was 13.7 s, the Plat (3 h) was 114.8 x10_4/uL and the RBC (3 h) was 641.4 x10_4/ul. For the same molecule, the Ret (3 h) was 8.1%, the WBC (3 h) was 96.3 x10_2/uL and the KIDNEY_L (3 h) was 0.9 g. It also gave a KIDNEY_R (3 h) of 0.9 g, a KIDNEY_TOTAL (3 h) of 1.8 g and an LIVER (3 h) of 9.1 g. It also gave an ALP (3 h) of 1765 IU/L, an ALT (3 h) of 39.6 IU/L and an AST (3 h) of 74.4 IU/L. The BUN (3 h) was 11.6 mg/dL, the CRE (3 h) was 0.2 mg/dL and the Ca (3 h) was 11.1 mg/dL. For the same molecule, the Cl (3 h) was 105.4 meq/L, the DBIL (3 h) was 0 mg/dL and the GLC (3 h) was 169 mg/dL. For the same molecule, the IP (3 h) was 8.8 mg/dL, the K (3 h) was 4.2 meq/L and the LDH (3 h) was 115.4 IU/L. For the same molecule, the Na (3 h) was 142.2 meq/L, the PL (3 h) was 153.4 mg/dL and the RALB (3 h) was 2.5 g/dL. For the same molecule, the TBIL (3 h) was 0.05 mg/dL, the TC (3 h) was 87.8 mg/dL and the TG (3 h) was 53.2 mg/dL. The TP (3 h) was 5.4 g/dL, the gamma-GTP (3 h) was 1.8 IU/L and the TERMINAL_BW (6 h) was 211 g. The APTT (6 h) was 18.2 s, the Bas (6 h) was 0.4% and the Eos (6 h) was 1%. The Fbg (6 h) was 290.8 mg/dL, the Hb (6 h) was 13.6 g/dL and the Ht (6 h) was 40.8%. The Lym (6 h) was 76.2%, the MCH (6 h) was 20.7 pg and the MCHC (6 h) was 33.4%. The MCV (6 h) was 62.2 fL, the Mono (6 h) was 2.6% and the Neu (6 h) was 19.4%. For the same molecule, the PT (6 h) was 14.1 s, the Plat (6 h) was 119.9 x10_4/uL and the RBC (6 h) was 656.6 x10_4/ul. It also gave a Ret (6 h) of 7.6%, a WBC (6 h) of 104.2 x10_2/uL and a KIDNEY_L (6 h) of 0.9 g. The KIDNEY_R (6 h) was 1 g, the KIDNEY_TOTAL (6 h) was 1.9 g and the LIVER (6 h) was 8.7 g. The ALP (6 h) was 1471.4 IU/L, the AST (6 h) was 74.4 IU/L and the BUN (6 h) was 9.6 mg/dL. For the same molecule, the CRE (6 h) was 0.2 mg/dL, the Ca (6 h) was 11 mg/dL and the Cl (6 h) was 106 meq/L. It also gave a DBIL (6 h) of 0 mg/dL, a GLC (6 h) of 171.6 mg/dL and an IP (6 h) of 9.3 mg/dL. For the same molecule, the K (6 h) was 4.1 meq/L, the LDH (6 h) was 73.8 IU/L and the Na (6 h) was 144 meq/L. It also gave a PL (6 h) of 142 mg/dL, an RALB (6 h) of 2.5 g/dL and a TBIL (6 h) of 0.052 mg/dL. The TC (6 h) was 78.8 mg/dL, the TG (6 h) was 50 mg/dL and the TP (6 h) was 5.4 g/dL. The gamma-GTP (6 h) was 1.4 IU/L, the TERMINAL_BW (9 h) was 210.5 g and the APTT (9 h) was 17.7 s. It also gave a Bas (9 h) of 0.2%, an Eos (9 h) of 0.8% and a Fbg (9 h) of 302.8 mg/dL. The Hb (9 h) was 13.2 g/dL, the Ht (9 h) was 39.7% and the Lym (9 h) was 77.4%. It also gave an MCH (9 h) of 21.6 pg, an MCHC (9 h) of 33.3% and an MCV (9 h) of 64.9 fL. It also gave a Mono (9 h) of 2.6%, a PT (9 h) of 13.7 s and a Plat (9 h) of 116.6 x10_4/uL. For the same molecule, the RBC (9 h) was 611.4 x10_4/ul, the Ret (9 h) was 8.6% and the WBC (9 h) was 81.1 x10_2/uL. The KIDNEY_L (9 h) was 0.9 g, the KIDNEY_R (9 h) was 0.9 g and the KIDNEY_TOTAL (9 h) was 1.9 g. It also gave an LIVER (9 h) of 8.4 g, an ALP (9 h) of 1519.6 IU/L and an ALT (9 h) of 36.8 IU/L. It also gave an AST (9 h) of 75.4 IU/L, a BUN (9 h) of 9.2 mg/dL and a CRE (9 h) of 0.2 mg/dL. It also gave a Ca (9 h) of 10.9 mg/dL, a DBIL (9 h) of 0.002 mg/dL and a GLC (9 h) of 163.6 mg/dL. The IP (9 h) was 9.8 mg/dL, the K (9 h) was 4 meq/L and the LDH (9 h) was 75.8 IU/L. It also gave a Na (9 h) of 143.4 meq/L, a PL (9 h) of 145.6 mg/dL and an RALB (9 h) of 2.5 g/dL. The TBIL (9 h) was 0.066 mg/dL, the TC (9 h) was 81.6 mg/dL and the TG (9 h) was 44.2 mg/dL. The TP (9 h) was 5.4 g/dL, the gamma-GTP (9 h) was 1.2 IU/L and the TERMINAL_BW (24 h) was 226.9 g. The APTT (24 h) was 17.2 s, the Bas (24 h) was 0% and the Eos (24 h) was 1%. The Fbg (24 h) was 296.2 mg/dL, the Hb (24 h) was 13.3 g/dL and the Ht (24 h) was 40.1%. It also gave a Lym (24 h) of 82.4%, an MCH (24 h) of 21.1 pg and an MCHC (24 h) of 33%. The MCV (24 h) was 63.7 fL, the Mono (24 h) was 2.2% and the Neu (24 h) was 13.6%. It also gave a PT (24 h) of 13.6 s, a Plat (24 h) of 120.9 x10_4/uL and an RBC (24 h) of 630.4 x10_4/ul. The Ret (24 h) was 7.8%, the WBC (24 h) was 100.3 x10_2/uL and the KIDNEY_L (24 h) was 1 g. It also gave a KIDNEY_R (24 h) of 1 g, a KIDNEY_TOTAL (24 h) of 1.9 g and an LIVER (24 h) of 10.7 g. For the same molecule, the ALP (24 h) was 1883.2 IU/L, the ALT (24 h) was 37.2 IU/L and the AST (24 h) was 66.2 IU/L. For the same molecule, the BUN (24 h) was 15.2 mg/dL, the CRE (24 h) was 0.2 mg/dL and the Ca (24 h) was 11.1 mg/dL. It also gave a Cl (24 h) of 104.4 meq/L, a DBIL (24 h) of 0.008 mg/dL and a GLC (24 h) of 179 mg/dL. The IP (24 h) was 7.9 mg/dL, the K (24 h) was 4.2 meq/L and the LDH (24 h) was 106.8 IU/L. The PL (24 h) was 161.8 mg/dL, the RALB (24 h) was 2.6 g/dL and the TBIL (24 h) was 0.038 mg/dL. For the same molecule, the TC (24 h) was 81.8 mg/dL, the TG (24 h) was 122.2 mg/dL and the TP (24 h) was 5.7 g/dL.
